Data as given in patent US9266835B2, “Quinoline derivatives useful as CB-1 inverse agonists” (JANSSEN PHARMACEUTICA NV, priority 2014, dated 2016).

Legend:
[1] = molecular target: Human CB1R (Cannabinoid receptor 1) (Homo sapiens (Human), UniProt P21554); assay: CB-1 in vitro cAMP assay (HTRF), inverse agonism; format: cell-based; settings: mean where tested more than once
Source text: (§1) CB1 and CB2 receptors are Gi-coupled GPCR. Activation of CB1 and CB2 receptors results in a decrease in cAMP production. An inverse agonist of the CB1 or CB2 receptor results in the opposite effect, an increase of cAMP production. The principle of this assay is based on HTRF® technology (Homogeneous Time-Resolved Fluorescence). The method is a competitive immunoassay between native cAMP produced by cells and the cAMP labeled with the fluorophore d2. The tracer binding is quantified by a Mab anti-cAMP labeled with Eu3+TBP-NHS Cryptate (supplied as part of the assay kit). The specific signal (i.e. energy transfer) is inversely proportional to the concentration of cAMP in the standard or sample.
(§2) Human CB1R (Cannabinoid receptor 1) was stably transfected in HEK-293 cells (DiscoveRx, cat: 93-0200C1). Human CB2R (Cannabinoid receptor 2) was stably transfected in HEK-293 cells (DiscoveRx, cat: 93-0201C1). Cell cultures were maintained in media: DMEM (Invitrogen Cat#12430-054) supplemented with 10% HI FBS (Invitrogen Cat#16140-071), 1% L-glutamine (Invitrogen Cat#25030-081), 0.2 mg/ml Hygromycin B (Invitrogen Cat#10687-010), 600 μg/mL G418 (Invitrogen Cat#10131-035), and 1X Penn/Strep (Invitrogen 15140-122). After cell expansion, aliquots were cryo-stored in media containing 5% DMSO (Pierce Cat#20684).
(§3) One day prior to experiments media was warmed to 37° C. and the cryo-stored cells were thawed in a 37° C. water bath. The cells were then added to media (10× volume) and the mixture was centrifuged at 1000 RPM for 5 min. The supernate was removed and the cells were re-suspended in media. A sample of the cell suspension was evaluated on a Cedex XS automated cell counter (Innovatis Systems) to determine viable cells/ml. Additional media was added to the cells to achieve a final cell density of 4E5 cells/mL. The cells were then plated into 384 well PDL white solid bottom plates (Greiner, Cat#781945) at 20 μL per well using a Multidrop (Thermo Scientific). Cells were removed from Row P (location of cAMP standards). Two columns of cells were plated into a clear bottom 384 well PDL coated plate (Greiner, Cat#781944) to view confluence the day of the assay. The cell plates were lidded and stored for 15 minutes in a hood, then transferred to an incubator (37° C., 5% CO2, 95% humidity) overnight.
(§4) DMSO was added to all wells of 384 well V bottom polystyrene plate (Greiner, Cat#781280) except to columns 1 and 13, rows 0 and P and wells M13-M23 and N13-N23. Test compounds (60 μL, 10 mM) were added to Column 1 and 13 (A1 through N1 and A13 through L13). Test compounds were serially diluted 1/3 by transferring and mixing 20 μl sample with 40 μL DMSO.
(§5) DMSO (40 μL) was added to wells of 384 well V bottom polystyrene plate: O2 through O11, M14 through M23, N14 through N23, and O14 through O23. AM630 (also known as [6-iodo-2-methyl-1-[2-(4-morpholinyl)ethyl]-1H-indol-3-yl](4-methoxyphenyl)-methanone, Cayman Chemical, Cat#10006974) (60 μL, 10 mM) was added to 01; and 1-(2,4-dichlorophenyl)-7-[(4-fluorophenyl)methylene]-4,5,6,7-tetrahydro-N-1-piperidinyl-1H-indazole-3-carboxamide (60 μL, 10 mM) was added to N13. The control was serially diluted 1/3 by transferring and mixing 20 μl sample with 40 μL DMSO. This process resulted 11 doses per control, 10 mM to […].
(§6) Cells plated the day prior to the assay in clear bottom plates were viewed on an inverse microscope to ensure confluency in the range of 60-75%. […]

[2] = molecular target: Human CB2R (Cannabinoid receptor 2) (Homo sapiens (Human), UniProt P34972); assay: CB-2 in vitro cAMP assay (HTRF), inverse agonism; format: cell-based; settings: mean where tested more than once
Human CB2R (Cannabinoid receptor 2), sequence (P34972 whole entry): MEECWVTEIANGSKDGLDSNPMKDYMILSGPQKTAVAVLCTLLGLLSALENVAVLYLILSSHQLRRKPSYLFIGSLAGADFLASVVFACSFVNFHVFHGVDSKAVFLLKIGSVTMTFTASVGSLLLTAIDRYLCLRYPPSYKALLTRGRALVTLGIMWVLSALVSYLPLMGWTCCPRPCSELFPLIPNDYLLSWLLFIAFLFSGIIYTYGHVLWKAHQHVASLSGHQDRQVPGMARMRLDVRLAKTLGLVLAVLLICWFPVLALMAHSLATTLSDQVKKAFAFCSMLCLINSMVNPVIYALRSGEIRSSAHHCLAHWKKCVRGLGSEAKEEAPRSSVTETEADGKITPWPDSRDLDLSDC
Source text: as §1, §2, §3, §4, §5, §6

Human CB1R (Cannabinoid receptor 1), sequence (P21554 whole entry): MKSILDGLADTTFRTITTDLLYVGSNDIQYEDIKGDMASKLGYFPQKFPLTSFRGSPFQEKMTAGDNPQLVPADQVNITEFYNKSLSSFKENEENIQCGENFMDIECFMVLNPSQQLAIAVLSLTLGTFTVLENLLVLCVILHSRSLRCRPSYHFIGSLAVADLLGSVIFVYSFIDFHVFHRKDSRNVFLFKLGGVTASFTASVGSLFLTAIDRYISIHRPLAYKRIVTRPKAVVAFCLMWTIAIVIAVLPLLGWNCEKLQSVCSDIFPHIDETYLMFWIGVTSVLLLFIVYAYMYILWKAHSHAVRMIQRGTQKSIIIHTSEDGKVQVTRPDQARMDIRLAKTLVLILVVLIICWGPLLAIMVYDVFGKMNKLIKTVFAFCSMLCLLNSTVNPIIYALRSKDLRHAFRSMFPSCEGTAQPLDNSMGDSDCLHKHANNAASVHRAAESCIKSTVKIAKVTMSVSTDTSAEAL

Structure (SMILES)	EC50 [1] [nM]	EC50 [2] [nM]
CCOC(=O)N1CCC(Nc2cc(=O)[nH]c3ccc(C(c4ccc(Cl)cc4)c4nccs4)cc23)CC1 (stereo not drawn) [Compound 37, Ethyl 4-({6-[(4-chlorophenyl)(1,3-thiazol-2-yl)methyl]-2-oxo-1,2-dihydroquinolin-4-yl}amino)piperidine-1-carboxylate]	19	> 10000
O=c1cc(/C=C/c2cccc(F)c2)c2cc(C(c3ccc(Cl)cc3)c3nccs3)ccc2[nH]1 (stereo not drawn) [Compound 38, (E)-6-((4-chlorophenyl)(thiazol-2-yl)methyl)-4-(3-fluorostyryl)quinolin-2(1H)-one]	497	> 10000
O=c1cc(NC2CCNCC2)c2cc(C(c3ccc(Cl)cc3)c3nccs3)ccc2[nH]1 (stereo not drawn) [Compound 39, 6-((4-chlorophenyl)(thiazol-2-yl)methyl)-4-(piperidin-4-ylamino)quinolin-2(1H)-one]	604	> 10000
CC(C)S(=O)(=O)N1CCC(Nc2cc(=O)[nH]c3ccc(C(c4ccc(Cl)cc4)c4nccs4)cc23)CC1 (stereo not drawn) [Compound 40, 6-[(4-Chlorophenyl)(1,3-thiazol-2-yl)methyl]-4-({1-[(1-methylethyl)sulfonyl]piperidin-4-yl}amino)quinolin-2(1H)-one]	204	> 10000
CC(C)(C)OC(=O)N1CC[C@H](Nc2cc(=O)[nH]c3ccc(C(c4ccc(Cl)cc4)c4nccs4)cc23)C1 (stereo partly drawn) [Compound 45, tert-Butyl (3S)-3-({6-[(4-chlorophenyl)(1,3-thiazol-2-yl)methyl]-2-oxo-1,2-dihydroquinolin-4-yl}amino)pyrrolidine-1-carboxylate]	1170	> 10000
CC(C)(C)OC(=O)N1CC[C@@H](Nc2cc(=O)[nH]c3ccc(C(c4ccc(Cl)cc4)c4nccs4)cc23)C1 (stereo partly drawn) [Compound 46, tert-Butyl (3R)-3-({6-[(4-chlorophenyl)(1,3-thiazol-2-yl)methyl]-2-oxo-1,2-dihydroquinolin-4-yl}amino)pyrrolidine-1-carboxylate]	657	> 10000
O=c1cc(N[C@@H]2CCN(S(=O)(=O)C(F)(F)F)C2)c2cc(C(c3ccc(Cl)cc3)c3nccs3)ccc2[nH]1 (stereo partly drawn) [Compound 47, 6-[(4-Chlorophenyl)(1,3-thiazol-2-yl)methyl]-4-({(3R)-1-[(trifluoromethyl)sulfonyl]-pyrrolidin-3-yl}amino)quinolin-2(1H)-one]	75	4610
O=c1cc(N[C@H]2CCN(S(=O)(=O)C(F)(F)F)C2)c2cc(C(c3ccc(Cl)cc3)c3nccs3)ccc2[nH]1 (stereo partly drawn) [Compound 48, 6-[(4-Chlorophenyl)(1,3-thiazol-2-yl)methyl]-4-({(3S)-1-[(trifluoromethyl)sulfonyl]-pyrrolidin-3-yl}amino)quinolin-2(1H)-one]	230	> 3300
O=c1cc(NC2CCN(S(=O)(=O)C(F)(F)F)CC2)c2cc(C(O)(c3ccc(F)cc3)c3ccc(Cl)cc3)ccc2[nH]1 (stereo not drawn) [Compound 50, 6-[(4-Chlorophenyl)(4-fluorophenyl)hydroxymethyl]-4-({1-[(trifluoromethyl)sulfonyl]-piperidin-4-yl}amino)quinolin-2(1H)-one]	530	9700
COc1ccc(C(O)(c2ccc(Cl)cc2)c2ccc3[nH]c(=O)cc(NC4CCN(S(=O)(=O)C(F)(F)F)CC4)c3c2)cc1 (stereo not drawn) [Compound 51, 6-[(4-chlorophenyl)(hydroxy)(4-methoxyphenyl)methyl]-4-[[1-(trifluoromethane)sulfonylpiperidin-4-yl]amino]-1,2-dihydroquinolin-2-one]	29	8280
O=c1cc(NC2CCN(S(=O)(=O)C(F)(F)F)CC2)c2cc(C(c3ccc(F)cc3)c3ccc(Cl)cc3)ccc2[nH]1 (stereo not drawn) [Compound 52, 6-[(4-Chlorophenyl)(4-fluorophenyl)methyl]-4-({1-[(trifluoromethyl)sulfonyl]-piperidin-4-yl}amino)quinolin-2(1H)-one]	23	7100
O=c1cc(NC2CCN(S(=O)(=O)C(F)(F)F)CC2)c2cc(C(c3ccc(Cl)cc3)c3ccc4c(c3)OCO4)ccc2[nH]1 (stereo not drawn) [Compound 55, 6[1,3-Benzodioxo1-5-yl(4-chlorophenyl)methyl]-4-({1-[(trifluoromethyl)sulfonyl]-piperidin-4-yl}amino)quinolin-2(1H)-one]	10	840
O=c1cc(NC2CCN(c3ncccn3)CC2)c2cc(C(c3ccc(Cl)cc3)c3ccc(Cl)cc3)ccc2[nH]1 [Compound 57, 6-(bis(4-chlorophenyl)methyl)-4-((1-(pyrimidin-2-yl)piperidin-4-yl)amino)quinolin-2(1H)-one]	11	4100
O=c1cc(NCc2ccc(C(F)(F)F)cc2)c2cc(C(c3ccc(Cl)cc3)c3ccc(Cl)cc3)ccc2[nH]1 [Compound 58, 6-[Bis(4-chlorophenyl)methyl]-4-{[4-(trifluoromethyl)benzyl]amino}-quinolin-2(1H)-one]	45	> 10000
O=c1cc(NC2CCN(c3ccccc3)CC2)c2cc(C(c3ccc(Cl)cc3)c3ccc(Cl)cc3)ccc2[nH]1 [Compound 60, 6-[bis(4-chlorophenyl)methyl]-4-[(1-phenylpiperidin-4-yl)amino]quinolin-2-ol]	6	> 10000
O=c1cc(NC2CCN(S(=O)(=O)C(F)(F)F)CC2)c2cc(C(c3ccc(Cl)cc3)c3ccc(C(F)(F)F)cc3)ccc2[nH]1 (stereo not drawn) [Compound 62, 6-{(4-Chlorophenyl)[4-(trifluoromethyl)phenyl]methyl}-4-({1-[(trifluoromethyl)sulfonyl]-piperidin-4-yl}amino)quinolin-2(1H)-one]	29	3230
CS(=O)(=O)N1CCC(Nc2cc(=O)[nH]c3ccc(C(c4ccc(Cl)cc4)c4ccc(Cl)cc4)cc23)CC1 [Compound 63, 6-[Bis(4-chlorophenyl)methyl]-4-{[1-(methylsulfonyl)piperidin-4-yl]amino}quinolin-2(1H)-one]	94	2660
O=C(c1ccccc1)N1CCC(Nc2cc(=O)[nH]c3ccc(C(c4ccc(Cl)cc4)c4ccc(Cl)cc4)cc23)CC1 [Compound 64, 4-((1-benzoylpiperidin-4-yl)amino)-6-(bis(4-chlorophenyl)methyl)quinolin-2(1H)-one]	28	4500
O=c1cc(NC2CCN(S(=O)(=O)C(F)(F)F)CC2)c2cc(C(c3ccc(Cl)cc3)c3nc4ccccc4s3)ccc2[nH]1 (stereo not drawn) [Compound 65, 6-[1,3-Benzothiazol-2-yl(4-chlorophenyl)methyl]-4-({1-[(trifluoromethyl)sulfonyl]-piperidin-4-yl}amino)quinolin-2(1H)-one]	64	4300
O=c1cc(NC2CCN(S(=O)(=O)C3CC3)CC2)c2cc(C(c3ccc(Cl)cc3)c3ccc(Cl)cc3)ccc2[nH]1 [Compound 67, 6-[Bis(4-chlorophenyl)methyl]-4-{[1-(cyclopropylsulfonyl)piperidin-4-yl]amino}quinolin-2(1H)-one]	15	> 10000
O=c1cc(NC2CCN(c3ccccn3)CC2)c2cc(C(c3ccc(Cl)cc3)c3ccc(Cl)cc3)ccc2[nH]1 [Compound 68, 6-[Bis(4-chlorophenyl)methyl]-4-[(1-pyridin-2-ylpiperidin-4-yl)amino]quinolin-2(1H)-one]	6	> 10000
